Experimental data as given in ChEMBL document CHEMBL1201862, “PubChem BioAssay data set” (2004).
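In this assay, cells in 96-well plates receive the compound at five concentrations for 48 hours. Endpoints are linearly interpolated between the surrounding concentrations. Here, GI50 denotes the concentration required for 50% inhibition of growth.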 The source made the active and inactive calls. Cut-off read from the data, not from the text of the source: active = GI50 up to about 1.1 µM and inactive = higher.

Tests used:
Test in all cases: growth of human tumour cells (NCI), 48 h
786-0 = system: 786-0
A498 = system: A498
ACHN = system: ACHN
COLO 205 = system: COLO 205
HCT-15 = system: HCT-15
HL-60 = system: HL-60
HOP-92 = system: HOP-92
LOX IMVI = system: LOX IMVI
Malme-3M = system: Malme-3M
NCI-H460 = system: NCI-H460
OVCAR-4 = system: OVCAR-4
RXF 393 = system: RXF 393
SF-295 = system: SF-295
SK-MEL-2 = system: SK-MEL-2
SK-OV-3 = system: SK-OV-3
SN12C = system: SN12C
SNB-19 = system: SNB-19
SNB-75 = system: SNB-75
UO-31 = system: UO-31
KM12 = system: KM12

Measured: GI50

O=C1OCC2=C1C(c1ccc3c(c1)OCO3)c1cc3c(cc1O2)OCO3 (stereo not drawn)
0.346 µM: HCT-15
active: 786-0 0.785 µM | COLO 205 0.44 µM | HL-60 0.134 µM | LOX IMVI 0.507 µM | NCI-H460 0.522 µM | RXF 393 0.828 µM | SK-MEL-2 0.375 µM | SK-OV-3 0.776 µM | SNB-75 0.5 µM
inactive: A498 1.98 µM | ACHN 3.27 µM | HOP-92 14.4 µM | Malme-3M 3.1 µM | OVCAR-4 7.94 µM | SF-295 3.03 µM | SN12C 1.3 µM | SNB-19 2.1 µM | UO-31 1.59 µM

C/C(=C/CNc1ncnc2c1ncn2CCC(=O)O)CO
inactive: 786-0 > 100 µM | A498 > 100 µM | ACHN > 100 µM | COLO 205 > 100 µM | HL-60 > 100 µM | HOP-92 > 100 µM | KM12 > 100 µM | LOX IMVI > 100 µM | Malme-3M > 100 µM | NCI-H460 > 100 µM | OVCAR-4 > 100 µM | RXF 393 > 100 µM | SF-295 > 100 µM | SK-OV-3 > 100 µM | SN12C > 100 µM | SNB-19 > 100 µM | SNB-75 > 100 µM | UO-31 > 100 µM

CCOC(=O)CCc1c(C)nc2c(C)c3c([nH]c4ccc(Cl)cc43)c(C)c2c1O
12.2 µM: HCT-15
inactive: 786-0 6.37 µM | A498 1.8 µM | ACHN 12.1 µM | COLO 205 10.4 µM | HL-60 4.94 µM | HOP-92 15.8 µM | KM12 11.7 µM | LOX IMVI 10.9 µM | Malme-3M 11.3 µM | NCI-H460 2.15 µM | OVCAR-4 6.89 µM | RXF 393 2.96 µM | SF-295 5.55 µM | SK-MEL-2 1.45 µM | SNB-19 9.59 µM | SNB-75 4.37 µM | UO-31 16.1 µM

CC1=C(C(=O)Nc2ccccc2)C(c2ccc([N+](=O)[O-])cc2)C(C(=O)Nc2ccccc2)=C(C)N1
17.6 µM: HCT-15
inactive: 786-0 19.8 µM | A498 26.2 µM | ACHN 37 µM | HL-60 13.1 µM | HOP-92 17.9 µM | KM12 15.8 µM | LOX IMVI 15.2 µM | Malme-3M 34.2 µM | NCI-H460 21.1 µM | RXF 393 17.6 µM | SF-295 22.4 µM | SK-MEL-2 14.7 µM | SN12C 30.5 µM | SNB-19 10.4 µM | SNB-75 26.6 µM | UO-31 22.4 µM

COc1ccc(-c2c(N)n(-c3nc4ccccc4s3)c(=O)c3cc([N+](=O)[O-])ccc23)cc1
inactive: 786-0 4.29 µM | A498 74 µM | ACHN 22 µM | HL-60 99.8 µM | HOP-92 16.4 µM | KM12 18.6 µM | LOX IMVI 14.9 µM | Malme-3M 20.7 µM | NCI-H460 3.69 µM | OVCAR-4 24.1 µM | RXF 393 14.2 µM | SF-295 22.3 µM | SK-MEL-2 25.4 µM | SK-OV-3 15.3 µM | SNB-19 40.1 µM | SNB-75 8.43 µM | UO-31 16.3 µM
41.8 µM: HCT-15

C#CC(C)(C)OC(=O)C(=[N+]=[N-])C(C)=O
> 10 µM: HCT-15
inactive: 786-0 > 10 µM | A498 > 10 µM | ACHN > 10 µM | HL-60 > 10 µM | HOP-92 > 10 µM | KM12 > 10 µM | LOX IMVI > 10 µM | Malme-3M > 10 µM | NCI-H460 > 10 µM | RXF 393 > 10 µM | SF-295 > 10 µM | SK-MEL-2 > 10 µM | SK-OV-3 > 10 µM | SN12C > 10 µM | SNB-19 > 10 µM | SNB-75 > 10 µM | UO-31 > 10 µM
